Here are results for 24 molecules from US11014941B2, “Pyrrolopyrimidine derivatives useful as inhibitors of influenza virus replication” (priority 2017, dated 2021).

Each structure is given as a SMILES string.

The term IC50 denotes the concentration needed to halve the response being measured.

The target of this test is Influenza PB2 (Influenza A virus, UniProt P03428). As to the kind of experiment: biochemical. It counts as binding. The note with it: read-out: Influenza PB2 affinity, IC50.
Influenza PB2, sequence (P03428 whole entry, looked up): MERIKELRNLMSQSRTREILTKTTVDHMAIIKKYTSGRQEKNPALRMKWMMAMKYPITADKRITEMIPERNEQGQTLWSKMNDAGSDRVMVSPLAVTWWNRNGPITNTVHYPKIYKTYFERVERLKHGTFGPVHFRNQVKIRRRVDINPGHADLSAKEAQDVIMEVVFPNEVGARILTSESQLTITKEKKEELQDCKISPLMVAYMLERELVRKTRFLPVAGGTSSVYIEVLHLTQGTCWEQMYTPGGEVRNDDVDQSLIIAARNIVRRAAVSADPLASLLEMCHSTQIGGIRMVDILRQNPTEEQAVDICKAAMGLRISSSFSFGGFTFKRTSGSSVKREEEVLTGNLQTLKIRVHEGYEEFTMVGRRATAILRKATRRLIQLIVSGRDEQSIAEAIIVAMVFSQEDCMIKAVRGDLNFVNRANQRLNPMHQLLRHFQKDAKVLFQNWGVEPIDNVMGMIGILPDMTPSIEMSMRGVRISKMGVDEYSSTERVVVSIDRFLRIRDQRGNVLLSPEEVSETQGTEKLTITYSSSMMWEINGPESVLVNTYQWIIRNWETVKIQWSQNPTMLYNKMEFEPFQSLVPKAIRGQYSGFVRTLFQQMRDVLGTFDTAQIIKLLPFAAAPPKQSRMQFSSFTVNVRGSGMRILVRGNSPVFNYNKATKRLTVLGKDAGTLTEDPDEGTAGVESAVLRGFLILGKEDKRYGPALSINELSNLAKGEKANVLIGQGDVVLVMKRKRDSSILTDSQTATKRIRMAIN
Turning to `N#Cc1cn([C@@H]2C3CCC(CC3)[C@H]2C(=O)O)c2nc(-c3c[nH]c4ncc(Cl)cc34)ncc12` [Compound B191], the 50% inhibitory concentration (IC50) was < 1 µM. With `CSCCCCc1cn([C@@H]2C3CCC(CC3)[C@H]2C(=O)O)c2nc(-c3c[nH]c4ncc(F)cc34)ncc12` [Compound B192], the IC50 is < 1 µM.

Take `N#CCCCCc1cn([C@@H]2C3CCC(CC3)[C@H]2C(=O)O)c2nc(-c3c[nH]c4ncc(F)cc34)ncc12` [Compound B193]: the IC50 was < 1 µM. The result for `O=C(O)c1cn([C@H]2C3CCC(CC3)[C@@H]2C(=O)O)c2nc(-c3c[nH]c4ncc(Cl)cc34)ncc12` [Compound B196] reads 1 to 10 µM; that for `CNC(=O)c1cn([C@H]2C3CCC(CC3)[C@@H]2C(=O)O)c2nc(-c3c[nH]c4ncc(Cl)cc34)ncc12` [Compound B197], < 1 µM; that for `O=C(O)[C@@H]1C2CCC(CC2)[C@H]1n1ccc2ccc(-c3c[nH]c4ncc(F)cc34)cc21` [Compound B198], 10 to 100 µM. The result for `CCOC(=O)[C@@H]1C2CCC(CC2)[C@H]1n1ccc2ccc(-c3c[nH]c4ncc(F)cc34)nc21` [Compound B199] reads 10 to 100 µM; that for `COC(=O)[C@@H]1C2CCC(CC2)[C@H]1n1ccc2ccc(-c3c[nH]c4ncc(Cl)cc34)cc21` [Compound B200], 10 to 100 µM. For the molecule `CCOC(=O)[C@@H]1C2CCC(CC2)[C@H]1n1cc(CCCCSC)c2cnc(-c3c[nH]c4ncc(F)cc34)nc21` [Compound B201], the IC50 is > 100 µM. As to `CCOC(=O)[C@@H]1C2CCC(CC2)[C@H]1n1cc(CCCCC#N)c2cnc(-c3c[nH]c4ncc(F)cc34)nc21` [Compound B202], the IC50 is > 100 µM. The result for `CCOC(=O)[C@@H]1C2CCC(CC2)[C@H]1n1cc(C#CCCC#N)c2cnc(-c3c[nH]c4ncc(F)cc34)nc21` [Compound B203] reads 10 to 100 µM; that for `CN(C)C(=O)c1cn([C@@H]2C3CCC(CC3)[C@H]2C(=O)O)c2nc(-c3c[nH]c4ncc(Cl)cc34)ncc12` [Compound B204], < 1 µM. Turning to `O=C(O)[C@@H]1C2CCC(CC2)[C@H]1n1ccc2ccc(-c3c[nH]c4ncc(F)cc34)nc21` [Compound B205], the IC50 lay within 1 to 10 µM. For `O=C(O)[C@@H]1C2CCC(CC2)[C@H]1n1ccc2ccc(-c3c[nH]c4ncc(Cl)cc34)cc21` [Compound B206], the IC50 was in the range of 1 to 10 µM.

`CCOC(=O)c1cn([C@@H]2C3CCC(CC3)[C@H]2C(=O)O)c2nc(-c3c[nH]c4ncc(Cl)cc34)ncc12` [Compound B207]: the half-maximal inhibitory concentration (IC50) was < 1 µM. `O=C(O)[C@@H]1C2CCC(CC2)[C@H]1n1ccc2cnc(-c3c[nH]c4ncc(F)cc34)cc21` [Compound B208]: the IC50 lay within 1 to 10 µM.

Take `O=CC1=C(n2cc(F)c3cnc(-c4c[nH]c5ncc(Cl)cc45)nc32)C2CCC1CC2` [Compound B209]: the IC50 lay within 1 to 10 µM.

As to `C=Cc1cnc2[nH]cc(-c3ncc4c(F)cn([C@@H]5C6CCC(CC6)[C@H]5C(=O)O)c4n3)c2c1` [Compound B210], the 50% inhibitory concentration (IC50) is 1 to 10 µM. Turning to `O=C(O)C1=C(n2cc(F)c3cnc(-c4c[nH]c5ncc(Cl)cc45)nc32)C2CCC1CC2` [Compound B213], the IC50 was < 1 µM. Then `N#Cc1cnc2[nH]cc(-c3ncc4c(F)cn([C@@H]5C6CCC(CC6)[C@H]5C(=O)O)c4n3)c2c1` [Compound B214], with 1 to 10 µM.

`CCOC(=O)[C@@H]1C2CCC(CC2)[C@H]1n1cc(F)c2cnc(-c3c[nH]c4ncc(C#N)cc34)nc21` [Compound B215]: the IC50 is > 100 µM. `O=C(O)[C@@H]1C2CCC(CC2)[C@H]1n1cc(F)c2cnc(-c3c[nH]c4ncc(C(F)(F)F)cc34)nc21` [Compound B216]: the IC50 was 1 to 10 µM. The result for `CCOC(=O)[C@@H]1C2CCC(CC2)[C@H]1n1cc(F)c2cnc(-c3c[nH]c4ncc(C(F)(F)F)cc34)nc21` [Compound B217] reads > 100 µM; that for `N#Cc1cnc2[nH]cc(-c3ncc4c(Cl)cn([C@@H]5C6CCC(CC6)[C@H]5C(=O)O)c4n3)c2c1` [Compound B218], > 100 µM.
